This note sets out measurements from patent US20230151003A1, “COMPOUNDS AND METHODS OF USE” (Exelixis, Inc., priority 2020, published 2023).

One experiment has as its target T1, AXL (Homo sapiens, UniProt P30530).
T1 construct: endogenous in cells; host or cells: A-172 glioblastoma cells (ATCC #CRL-1620)
T1 sequence (P30530 26-894): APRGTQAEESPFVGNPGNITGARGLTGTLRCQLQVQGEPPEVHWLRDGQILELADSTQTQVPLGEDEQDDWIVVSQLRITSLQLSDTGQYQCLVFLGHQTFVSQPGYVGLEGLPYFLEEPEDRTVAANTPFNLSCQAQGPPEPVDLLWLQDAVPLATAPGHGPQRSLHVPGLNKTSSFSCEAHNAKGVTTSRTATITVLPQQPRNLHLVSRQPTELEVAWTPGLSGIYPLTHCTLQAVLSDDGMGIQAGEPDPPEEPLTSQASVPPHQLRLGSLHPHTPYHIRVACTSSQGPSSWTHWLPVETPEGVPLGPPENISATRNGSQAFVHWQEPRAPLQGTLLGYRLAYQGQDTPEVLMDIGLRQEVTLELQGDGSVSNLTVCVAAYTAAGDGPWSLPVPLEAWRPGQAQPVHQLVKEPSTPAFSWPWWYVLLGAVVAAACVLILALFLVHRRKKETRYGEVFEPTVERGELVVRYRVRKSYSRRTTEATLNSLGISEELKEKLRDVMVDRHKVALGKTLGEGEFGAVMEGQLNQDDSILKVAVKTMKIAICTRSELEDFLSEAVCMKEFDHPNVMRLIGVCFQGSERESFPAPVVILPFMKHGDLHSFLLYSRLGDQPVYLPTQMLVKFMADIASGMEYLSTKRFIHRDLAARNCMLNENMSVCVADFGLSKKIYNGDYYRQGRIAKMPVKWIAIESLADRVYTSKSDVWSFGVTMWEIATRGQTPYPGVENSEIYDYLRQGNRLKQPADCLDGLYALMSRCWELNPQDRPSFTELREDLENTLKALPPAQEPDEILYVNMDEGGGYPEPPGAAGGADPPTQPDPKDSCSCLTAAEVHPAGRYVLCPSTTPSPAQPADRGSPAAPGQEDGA
The experiment in a line: AXL autophosphorylation ELISA in A-172 cells. The class given is cell-based. The conditions noted are these: Table 3 Cellular Activities, Gas6-stimulated, phospho-AXL ELISA. In a few lines: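 Phospho-AXL in lysates measured by ELISA after Gas6 stimulation (1 μg/mL, 15 min) of A-172 cells pre-incubated 1 h with an 8-point compound dilution series in 0.3% DMSO after 24 h serum starvation. IC50 by 4-parameter logistic fit, with DMSO-treated and reference-inhibitor wells as 100% and 0% activity.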
In general terms: ELISA stands for enzyme-linked immunosorbent assay.

The next experiment concerns the target Met (Homo sapiens, UniProt P08581). The experiment in a line: Met autophosphorylation ELISA in PC-3 cells. It is filed as cell-based. On the set-up: endogenous in cells; host or cells: PC-3 prostate cancer cells (ATCC #CRL-1435). The conditions noted are these: Table 3 Cellular Activities, HGF-stimulated, phospho-Met ELISA, read-out: c-Met IC50. In a few lines:
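IC50 derived by 4-parameter logistic regression of phospho-Met (panTyr) sandwich ELISA signal, scaled between HGF-stimulated DMSO and reference-inhibitor lysates. PC-3 cells, serum-starved 3 h, received an 8-point compound series (0.3% DMSO) for 1 h before 10 min stimulation with 100 ng/mL human HGF.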

Structures can show the parent of a compound that is named as a salt.

Met, sequence (P08581 25-1390): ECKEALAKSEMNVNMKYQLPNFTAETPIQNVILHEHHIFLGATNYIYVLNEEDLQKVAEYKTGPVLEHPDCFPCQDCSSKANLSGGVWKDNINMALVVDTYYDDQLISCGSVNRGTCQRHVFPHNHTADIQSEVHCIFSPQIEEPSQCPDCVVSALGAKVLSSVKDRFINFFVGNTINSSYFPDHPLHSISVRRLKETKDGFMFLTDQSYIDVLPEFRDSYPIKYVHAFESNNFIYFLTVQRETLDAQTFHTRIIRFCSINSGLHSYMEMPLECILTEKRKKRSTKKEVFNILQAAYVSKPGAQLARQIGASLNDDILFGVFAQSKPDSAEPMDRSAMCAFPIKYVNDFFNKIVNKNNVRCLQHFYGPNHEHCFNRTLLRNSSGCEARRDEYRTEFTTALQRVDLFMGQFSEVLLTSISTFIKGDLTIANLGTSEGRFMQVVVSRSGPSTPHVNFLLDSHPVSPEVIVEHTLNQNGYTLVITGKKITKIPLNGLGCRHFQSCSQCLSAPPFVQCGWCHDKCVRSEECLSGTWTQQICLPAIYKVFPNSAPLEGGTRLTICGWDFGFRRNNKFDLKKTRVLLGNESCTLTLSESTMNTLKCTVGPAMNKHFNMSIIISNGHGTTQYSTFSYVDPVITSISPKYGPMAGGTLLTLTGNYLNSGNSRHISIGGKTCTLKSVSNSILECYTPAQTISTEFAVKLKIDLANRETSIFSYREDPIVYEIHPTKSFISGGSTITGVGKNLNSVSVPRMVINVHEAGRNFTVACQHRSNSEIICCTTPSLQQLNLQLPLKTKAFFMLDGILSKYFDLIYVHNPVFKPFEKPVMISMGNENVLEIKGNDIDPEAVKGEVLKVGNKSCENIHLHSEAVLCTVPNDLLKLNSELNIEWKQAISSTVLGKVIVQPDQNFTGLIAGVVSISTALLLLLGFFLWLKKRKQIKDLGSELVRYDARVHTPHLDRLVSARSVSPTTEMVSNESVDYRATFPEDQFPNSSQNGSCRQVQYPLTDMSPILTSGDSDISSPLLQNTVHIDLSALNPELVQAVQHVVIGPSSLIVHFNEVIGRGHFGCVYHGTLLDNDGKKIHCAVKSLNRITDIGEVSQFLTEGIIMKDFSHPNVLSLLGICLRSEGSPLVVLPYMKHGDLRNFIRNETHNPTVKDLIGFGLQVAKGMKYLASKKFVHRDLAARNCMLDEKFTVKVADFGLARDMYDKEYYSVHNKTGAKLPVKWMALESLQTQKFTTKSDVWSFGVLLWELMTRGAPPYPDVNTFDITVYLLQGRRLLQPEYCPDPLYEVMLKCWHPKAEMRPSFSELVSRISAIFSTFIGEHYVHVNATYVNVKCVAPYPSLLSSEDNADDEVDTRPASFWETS

Take `COc1cc2nccc(Oc3ccc(NC(=O)c4cnc(C)c(-c5nccs5)c4O)cc3F)c2nc1OC` [Compound 143, N-[4-[(6,7-Dimethoxy-1,5-naphthyridin-4-yl)oxy]-3-fluorophenyl]-4-hydroxy-6-methyl-5-(1,3-thiazol-2-yl)pyridine-3-carboxamide]: the IC50 at AXL and on Met was at most 100 nM each time.
Take `CCc1ccc(-c2c(C)nc(C)c(C(=O)Nc3ccc(Oc4ccnc5cc(OC)c(OC)nc45)c(F)c3)c2O)o1` [Compound 147, N-[4-[(6,7-Dimethoxy-1,5-naphthyridin-4-yl)oxy]-3-fluorophenyl]-5-(5-ethylfuran-2-yl)-4-hydroxy-2,6-dimethylpyridine-3-carboxamide]: the IC50 against AXL and on Met was at most 100 nM throughout.
As to `COc1cc2nccc(Oc3ccc(NC(=O)c4c(C)nc(C)c(-c5ccc(C(C)C)o5)c4O)cc3F)c2nc1OC` [Compound 148, N-[4-[(6,7-Dimethoxy-1,5-naphthyridin-4-yl)oxy]-3-fluorophenyl]-4-hydroxy-2,6-dimethyl-5-(5-propan-2-ylfuran-2-yl)pyridine-3-carboxamide], the IC50 against AXL and on Met was at most 100 nM in each case.
In the case of `C=Cc1ccc(-c2c(C)ncc(C(=O)Nc3ccc(Oc4ccnc5cc(OC)c(OC)nc45)c(F)c3)c2O)o1` [Compound 151, N-[4-[(6,7-Dimethoxy-1,5-naphthyridin-4-yl)oxy]-3-fluorophenyl]-5-(5-ethenylfuran-2-yl)-4-hydroxy-6-methylpyridine-3-carboxamide], the IC50 against AXL and at Met was at most 100 nM each time.
`C=C(C)c1ccc(-c2c(C)ncc(C(=O)Nc3ccc(Oc4ccnc5cc(OC)c(OC)nc45)c(F)c3)c2O)o1` [Compound 152, N-[4-[(6,7-Dimethoxy-1,5-naphthyridin-4-yl)oxy]-3-fluorophenyl]-4-hydroxy-6-methyl-5-(5-prop-1-en-2-ylfuran-2-yl)pyridine-3-carboxamide]: the IC50 on AXL and at Met was 100 to 300 nM each time.
`CCc1ccc(-c2c(C)ncc(C(=O)Nc3ccc(Oc4ccnc5cc(OC)c(OC)nc45)c(F)c3)c2O)o1` [Compound 153, N-[4-[(6,7-Dimethoxy-1,5-naphthyridin-4-yl)oxy]-3-fluorophenyl]-5-(5-ethylfuran-2-yl)-4-hydroxy-6-methylpyridine-3-carboxamide]: the IC50 against AXL was at most 100 nM; on Met it was 100 to 300 nM.
For `COc1cc2nccc(Oc3ccc(NC(=O)c4cnc(C)c(-c5ccc(C(C)C)o5)c4O)cc3F)c2nc1OC` [Compound 154, N-[4-[(6,7-Dimethoxy-1,5-naphthyridin-4-yl)oxy]-3-fluorophenyl]-4-hydroxy-6-methyl-5-(5-propan-2-ylfuran-2-yl)pyridine-3-carboxamide], in that order: at most 100 nM and at most 100 nM.
The corresponding values for `C=CCc1ccc(-c2c(C)ncc(C(=O)Nc3ccc(Oc4ccnc5cc(OC)c(OC)nc45)c(F)c3)c2O)o1` [Compound 155, N-[4-[(6,7-Dimethoxy-1,5-naphthyridin-4-yl)oxy]-3-fluorophenyl]-4-hydroxy-6-methyl-5-(5-prop-2-enylfuran-2-yl)pyridine-3-carboxamide] are at most 100 nM and at most 100 nM.
Consider `COc1cc2nccc(Oc3ccc(NC(=O)c4cnc(C)c(-c5ccc(C6CC6)o5)c4O)cc3F)c2nc1OC` [Compound 155A, 5-(5-Cyclopropylfuran-2-yl)-N-[4-[(6,7-dimethoxy-1,5-naphthyridin-4-yl)oxy]-3-fluorophenyl]-4-hydroxy-6-methylpyridine-3-carboxamide hydrochloride], for which the IC50 at AXL and on Met was at most 100 nM throughout.
`COc1cc2nccc(Oc3ccc(NC(=O)c4c(C)nc(C)c(-c5ccc(C6CC6)o5)c4O)cc3F)c2nc1OC` [Compound 155B, 5-(5-Cyclopropylfuran-2-yl)-N-[4-[(6,7-dimethoxy-1,5-naphthyridin-4-yl)oxy]-3-fluorophenyl]-4-hydroxy-2,6-dimethylpyridine-3-carboxamide]: the IC50 against AXL and at Met was at most 100 nM in each case.
Regarding `COc1cc2nccc(Oc3ccc(NC(=O)c4c(C)n(C)c(C)c(-c5ccco5)c4=O)cc3F)c2nc1OC` [Compound 160, N-[4-[(6,7-Dimethoxy-1,5-naphthyridin-4-yl)oxy]-3-fluorophenyl]-5-(furan-2-yl)-1,2,6-trimethyl-4-oxopyridine-3-carboxamide], the IC50 against AXL and at Met was at most 100 nM in each case.
Consider `COc1cc2nccc(Oc3cc(F)c(NC(=O)c4c(C)n(C)c(C)c(-c5ccco5)c4=O)cc3F)c2nc1OC` [Compound 163, N-[4-[(6,7-Dimethoxy-1,5-naphthyridin-4-yl)oxy]-2,5-difluorophenyl]-5-(furan-2-yl)-1,2,6-trimethyl-4-oxopyridine-3-carboxamide], for which the IC50 on AXL and on Met was at most 100 nM each time.
As for `COc1cc2nccc(Oc3ccc(NC(=O)c4c(C)n(C)c(C)c(-c5ccco5)c4=O)cc3)c2nc1OC` [Compound 164, N-[4-[(6,7-Dimethoxy-1,5-naphthyridin-4-yl)oxy]phenyl]-5-(furan-2-yl)-1,2,6-trimethyl-4-oxopyridine-3-carboxamide], the IC50 against AXL and on Met was at most 100 nM throughout.
`COc1cnc2c(Oc3ccc(NC(=O)c4c(C)n(C)c(C)c(-c5cccs5)c4=O)cc3)ccnc2c1` [Compound 165, N-[4-[(7-Methoxy-1,5-naphthyridin-4-yl)oxy]phenyl]-1,2,6-trimethyl-4-oxo-5-thiophen-2-ylpyridine-3-carboxamide]: the half-inhibitory concentration (IC50) on AXL and at Met was at most 100 nM throughout.
For the molecule `COc1cnc2c(Oc3ccc(NC(=O)c4c(C)n(C)c(C)c(-c5cccs5)c4=O)cc3F)ccnc2c1` [Compound 166, N-[3-Fluoro-4-[(7-methoxy-1,5-naphthyridin-4-yl)oxy]phenyl]-1,2,6-trimethyl-4-oxo-5-thiophen-2-ylpyridine-3-carboxamide], the IC50 against AXL and at Met was at most 100 nM throughout.
For the molecule `COc1cc2nccc(Oc3ccc(NC(=O)c4c(C)n(C)c(C)c(-c5cccs5)c4=O)cc3)c2nc1OC` [Compound 167, N-[4-[(6,7-Dimethoxy-1,5-naphthyridin-4-yl)oxy]phenyl]-1,2,6-trimethyl-4-oxo-5-thiophen-2-ylpyridine-3-carboxamide], the IC50 against AXL and on Met was at most 100 nM in each case.
As to `COc1cc2nccc(Oc3ccc(NC(=O)c4c(C)n(C)c(C)c(-c5cccs5)c4=O)cc3F)c2nc1OC` [Compound 168, N-[4-[(6,7-Dimethoxy-1,5-naphthyridin-4-yl)oxy]-3-fluorophenyl]-1,2,6-trimethyl-4-oxo-5-thiophen-2-ylpyridine-3-carboxamide], the IC50 against AXL and on Met was at most 100 nM in each case.
As to `COCc1nc(C)c(-c2ccccn2)c(O)c1C(=O)Nc1ccc(Oc2ccnc3cc(OC)c(OC)nc23)c(F)c1` [Compound 195, N-[4-[(6,7-Dimethoxy-1,5-naphthyridin-4-yl)oxy]-3-fluorophenyl]-4-hydroxy-2-(methoxymethyl)-6-methyl-5-pyridin-2-ylpyridine-3-carboxamide], the IC50 at AXL and on Met was at most 100 nM in each case.
As for `COc1cnc2c(Oc3ccc(NC(=O)c4cn(CCF)c(C)c(-c5ccc(C)s5)c4=O)cc3F)ccnc2c1` [Compound 329, 1-(2-Fluoroethyl)-N-[3-fluoro-4-[(7-methoxy-1,5-naphthyridin-4-yl)oxy]phenyl]-6-methyl-5-(5-methylthiophen-2-yl)-4-oxopyridine-3-carboxamide], the 50% inhibitory concentration (IC50) against AXL and at Met was at most 100 nM each time.
`COc1cnc2c(Oc3ccc(NC(=O)c4cn(CCF)c(C)c(-c5ccsc5)c4=O)cc3F)ccnc2c1` [Compound 330, 1-(2-Fluoroethyl)-N-[3-fluoro-4-[(7-methoxy-1,5-naphthyridin-4-yl)oxy]phenyl]-6-methyl-4-oxo-5-thiophen-3-ylpyridine-3-carboxamide]: the half-maximal inhibitory concentration (IC50) against AXL and at Met was at most 100 nM throughout.

As usually defined, the IC50 is the point on the concentration scale where inhibition reaches its midpoint.
